Series [1] is described as follows: Scavenging test of DPPH free radical. It counts as biochemical. As to conditions: for Scavenging efficiency (%): 200 μM DPPH, 30 minutes. As for the experimental part:
DPPH (1,1-diphenyl-2-picrylhydrazyl) was used as a source of free radicals to examine the scavenging efficiency of the caffeamide derivatives prepared in Example 1 on free radicals. […] The mixtures were placed in the dark at room temperature for 30 minutes and its absorbance at 517 nm was measured by an enzyme immunoassay analyzer. In this experiment, 50 volume % propanediol was used to replace extracts and to be a control group, ascorbic acid (vitamin C) was used as a positive control group, and methanol was used to replace DPPH as the background value. The scavenging efficiency of caffeamide derivatives on free radicals was examined by the formula blow, and the results are shown in Table 2, FIG. 1a, and FIG. 1b. Scavenging efficiency(%)=[the absorbance of the control group−the absorbance of the experimental group/the absorbance of the control group]×100%.

The subject of series [2] is human fibroblast Hs68 cells. In words: Scavenging test of ROS free radicals in UVB-irradiated cells. It counts as cell-based. As to conditions: UVB 80 mJ/cm^2, 24 hours. The protocol:
After incubated in an incubator (37° C., 5% CO2) for 24 hours, the ROS level was examined.

The test system of a further series is MMP-1. Kind of series: MMP expression, western blot, UVB-irradiated Hs68 cells. It counts as cell-based, human. As to conditions: 5 μM; UVB 40 mJ/cm^2; 48 hours. The protocol: (§1) Human fibroblast Hs68 cells (5×10^5) (the number of Bioresource Collection and Research Center (BCRC): 60038) were counted and incubated in a culture dish with a diameter of 10 cm (the culture dish components were adjusted by L-glutamine (4 mM) to have 1.5 g/L NaHCO3, 4.5 g/L glucose, and 90% Dulbecco's Modified Eagle's Medium with 10% fetal bovine serum (FBS)). The medium was removed until human fibroblast Hs68 cells grow to a confluence of 80%, and the cells were then washed once with 5 ml PBS (phosphate buffered saline). Then, 3 ml phenol red-free medium which contain different concentrations (0 μM to 25 μM) of the compounds of formula (1) or formula (2) prepared in Example 1 were added into the culture dish. After incubating for 1 hour, the cells were irradiated by UV light (UVB with an intensity of 40 mJ/cm^2) for 15 seconds. Next, the phenol red-free medium which contains different concentrations (0 μM to 25 μM) of the compounds of formula (1) or formula (2) prepared in Example 1 were added into the culture dish sequentially. After incubation in an incubator (37° C., 5% CO2) for 48 hours, the cells were collected.
(§2) The collected cells were treated with a sonication buffer (containing Na3VO4 (100 μM), phenylmethanesulfonyl fluoride (PMSFL, 100 mg/ml), leupeptin (20 mg/ml), Tris-HCl (pH 7.4, 50 μM), NaCl (37.5 μM), DL-dithiothretiol (250 μM), sodium deoxycholate (3 μM), EDTA (1 μM), SDS (0.1%), and Igepal™ CA-630 (Sigma-Aldrich, 1%)) and sonicated to rupture the cell membranes. Then, the organelles and fragments of the cells were precipitated by centrifugation, and the supernatant, which contains proteins in the cytosol was collected. Next, the obtained proteins were separated by SDS-PAGE, and transferred to a membrane by western blotting. Antibodies were used to recognize the targeted proteins, such as MMP-1, MMP-3, MMP-9, and actin. The images were recorded by a Luminescent imagination technology (LAS-4000, FUJIFILM), and the variation of the proteins expression levels were determined by a quantitative analysis software (multi Gauge 2.2, Steware Technology Inc.).
(In general: A western blot detects proteins with antibodies after separation by electrophoresis.)

The subject of a further series is MMP-3. Described as above. It counts as cell-based, human. The conditions noted are these: 5 μM; UVB 40 mJ/cm^2; 48 hours. The protocol:
as §1, §2

In the next series the test system is p-ERK. In words: Inhibition test of the phosphorylation of MAPK, western blot. It counts as cell-based, human. The conditions noted are these: UVB 40 mJ/cm^2. The protocol:
(§3) It has been known that the skin photo-aging caused by UV rays will increase the content of MMPs in the dermis by the phosphorylation of MAPK. In this experiment, the effect of caffeamide derivative on the phosphorylation of MAPK in the cells was analyzed by western blotting.
(§4) After being treated with the compound of formula (2) prepared in Example 1, the protein expression levels of the MAPKs induced by UVB were inhibited in a concentration dependent way. Specifically, when the concentration of the compound of formula (2) was 10 μM, the expression level of P-ERK was 1.1 times as compared to that of the untreated cells. When the concentration of the compound of formula (2) was 5 μM, the expression levels of p-JNK and p-p38 were both 1.1 times as compared to that of the untreated cells.

The test system of another series is p-JNK. The series is described as above. It counts as cell-based, human. The conditions noted are these: UVB 40 mJ/cm^2. As for the experimental part: as §3, §4
Another series deals with p-p38. The description is as above. The conditions noted are these: UVB 40 mJ/cm^2. The series is classed as cell-based, human. As for the experimental part:
as §3, §4

A further series has as its system c-Fos. Kind of series: Inhibition test of AP-1 gene transcription factors, western blot. It counts as cell-based, human. The conditions noted are these: 5 μM; UVB 40 mJ/cm^2. The text has this:
(§5) When cells are irradiated by UV rays, JNK, p38 and c-Jun in the cells will translocated into the nucleus, and c-For will translocate into the nucleus under the regulation of ERK and p38. The two subunits of c-Jun and c-Fos will combine to form an AP-1 gene transcription factor to participate in gene expression process and increase the mRNA transcription level of MMP-1. On the other hand, the two subunits can also reduce the gene expression level of procollagen al of Type I collagen. Therefore, in this experiment, the expression of AP-1 in the nucleus was analyzed by western blotting.
(§6) However, after the cells were treated with the compound of formula (2) prepared in Example 1, the protein expression levels of c-Fos, p-c-Jun, and c-Jun induced by UVB were inhibited in a concentration dependent way. Specifically, when the concentration of the compound of formula (2) was 10 μM, the expression level of c-Fos was 1.1 as compared to that of the untreated cells.

The next series relates to c-Jun. The description is as above. The series is classed as cell-based, human. As to conditions: UVB 40 mJ/cm^2.
Text: as §5, §6

The subject of the next series is Smad3. Kind of series: Promotion test of the expression of collagen, western blot. It counts as cell-based, human. The conditions noted are these: UVB 40 mJ/cm^2; result in words. As for the experimental part:
(§7) It has been known that Smad3 protein can promote the expression level of procollagen-1, and Smad7 protein can inhibit the expression level of Smad3 protein. After cells were irradiated with UV rays, the expression levels of procollagen-1 and Smad3 protein will reduce and the expression level of Smad7 protein will increase. Therefore, in this experiment, the expression levels of intracellular procollagen-1 protein, Smad3 protein and Smad7 protein were analyzed by western blotting.
(§8) Specifically, when the concentration of the compound of formula (2) was 25 μM, the protein expression level of Smad7 was 1.1 times as compared to that of the untreated cells.

The subject of another series is Smad7. The description is as above. It counts as cell-based, human. The conditions noted are these: UVB 40 mJ/cm^2. As for the experimental part:
as §7, §8

The test system of another series is procollagen-1. Described as above. The series is classed as cell-based, human. The conditions noted are these: 25 μM; UVB 40 mJ/cm^2. As for the experimental part: as §7, §8
For series [3], the system named is human fibroblast Hs68 cells. Kind of series: Cellular toxicity evaluation, MTT assay. It counts as cell-based. The conditions noted are these: 24 hours. The protocol: MTT (3-(4,5-dimethylthiazol-2-yl)-2,5-diphenyl tetrazolium bromide) assay was used to determine the cellular toxicity of the caffeamide derivatives described herein. First, different concentrations (0 μM to 100 μM) of the compounds of formula (1) or formula (2) prepared in Example 1 of the present invention were added, respectively, into a 96-well microplate which containing human fibroblast Hs68 cells (1×10^4 cells per well). After the cells were incubated in an incubator at 37° C. and 5% CO2 for 24 hours, 15 μl of MTT solution (0.5 mg/ml; dissolved in PBS) was added into the microplate and the human fibroblast Hs68 cells were incubated for 3 hours. Next, 75 μl SDS (sodium dodecyl sulfate) solution (10% SDS was dissolved in 0.01N HCl) was added into the microplate. After the cells were maintained for 24 hours, the absorbances of each well were measured at a wavelength of 570 nm by an enzyme immunoassay analyzer. Finally, the cell survival rate was calculated by the following formula to observe the cellular toxicity of compounds. The results are shown in Table 5, FIG. 10a and FIG. 10b. Cell survival rate(%)=absorbance of the experimental group/absorbance of the control group.

As to `O=C1O[C@H]([C@@H](O)CO)C(O)=C1O` [Ascorbic acid, ascorbic acid, reference compound], the “Scavenging efficiency (%)” value in [1] (25 μM) came to 57.5 ± 1.4%; in series [1] (50 μM) it was 89.8 ± 0.9%.
With `O=C(C=Cc1ccc(O)c(O)c1)NCCc1ccccc1` [Compound of formula (1)], the EC50 in [1] (DPPH free radical scavenging, read-out: SC50 (the source's name)) was determined as 22.1 ± 1.3 µM. Further, the “Concentration of ROS (times compared to the untreated cells)” value in series [2] (5 μM) stood at 1.2 ± 0.13 times; in series [2] (10 μM), 1.0 ± 0.21 times; in series [2] (25 μM), 0.8 ± 0.07 times; in series [2] (25 μM, listed as compound of formula (1)) it was 0.8 times. For the same compound, the “expression level of MMP-1 as compared to that of the untreated cells” value in the series with MMP-1 was found to be 1.0 times. Also, the “expression level of MMP-3 as compared to that of the untreated cells” value in the series on MMP-3 is 1.0 times. Besides, the “expression level of p-ERK as compared to that of the untreated cells” value came to 1.2 times with p-ERK (10 μM) and 1.3 times in the series with p-ERK (25 μM). The “expression level of p-JNK as compared to that of the untreated cells” value was determined as 1.2 times in the series with p-JNK (10 μM) and 0.8 times with p-JNK (25 μM). For the same compound, the “expression level of p-p38 as compared to that of the untreated cells” value in the series on p-p38 (10 μM) worked out at 1.2 times; with p-p38 (25 μM), 1.0 times. In addition, the “expression level of c-Fos as compared to that of the untreated cells” value in the series on c-Fos came to 1.1 times. Besides, the “expression level of c-Jun as compared to that of the untreated cells” value is recorded as 1.1 times in the series with c-Jun (10 μM) and 1.2 times with c-Jun (25 μM). For the same compound, the “effect on protein expression level of Smad3” value with Smad3 is given as “not affected”. Further, the “protein expression level of Smad7 as compared to that of the untreated cells” value in the series with Smad7 (5 μM) was found to be 1.2 times; with Smad7 (10 μM), 0.7 times; with Smad7 (25 μM) it was 0.7 times. For the same compound, the “protein expression level of procollagen-1 decreased by UVB, reversed to” value in the series with procollagen-1 was 0.7 times. In addition, the “Cell survival rate (%)” value in [3] (5 μM) amounted to 99.9 ± 1.8%; in series [3] (10 μM), 99.5 ± 4.6%; in series [3] (25 μM) it was 104.2 ± 3.7%; in series [3] (50 μM), 107.8 ± 1.2%.

These data come from US9211244B2, “Method for anti-skin aging using caffeamide derivative” (CHINA MEDICAL UNIVERSITY, priority 2013, dated 2015).
